# Laboratory results published in patent publication US5294619A, “Arylpiperidine derivatives” (Pfizer Inc., priority 1992, dated 1994).
# Target: T1, dopamine-2 receptor (Rattus norvegicus, UniProt P61169)
# T1 construct: The caudate and mesolimbic areas were then homogenized; from tissue; host or cells: rat brain, caudate and mesolimbic areas (washed membrane homogenate)
# Test: 3[H]-N-propylnorapomorphine binding assay (rat caudate and mesolimbic brain tissue)
# Conditions: inhibition of 3[H]-N-propylnorapomorphine binding, 0.32 nM radioligand, pH 7.5, 25° C., 30 minutes
# Description: The anti-psychotic activity of the compounds of the present invention as neuroleptic agents for the control of various psychotic disorders is determined primarily by a study of their ability to suppress ^3 [H]-N-propylnorapormorphine (dopamine-2 receptor) uptake in the brain of rats (in vitro). This study is carried out in a standard ^3 [H]-N-propylnorapomorphine binding assay test, where the amount of radioactivity is determined by liquid scintillation counting. In this way, the compounds can be rated in terms of their ability to reduce the amount of radioactivity caused by the aforesaid dopamine-2-receptor.
# The N-substituted arylpiperidine compounds of Examples 1-18, respectively, were tested for anti-psychotic activity in rats, using the standard ^3 [H]-N-propylnorapomorphine binding assay test, according to the general procedure described by K. Fuxe et al., as reported in the European Journal of Pharmacology, Vol. 100, p. 127 (1984).
# In this procedure, the brain was quickly removed from a decapitated rat and the caudate and mesolimbic areas were subsequently dissected therefrom to afford an average of ca. 150-180 mg. of material per rat. The caudate and mesolimbic areas were then homogenized on admixture with 40 volumes of ice-cold 15 mM Tris (i.e., tromethamine which is 2-amino-2-hydroxymethyl-1,3-propanediol) hydrochloride buffer having a pH of 7.5, which also contained 1.0 mM ethylenediaminetetraacetic acid (EDTA) and 0.01% ascorbic acid. The homogenate was next centrifuged at 35,000×G for a period of ten minutes. The supernatant liquid was then decanted, and the resulting pellet subsequently resuspended in 40 volumes of fresh, ice-cold Tris-EDTA buffer and homogenized, followed by incubation 37° C. for a period of ten minutes. The resulting homogenate was next re-centrifuged at 35,000×G for another ten-minute period, followed by decantation of the supernatant liquid. The pellet obtained in this manner was then resuspended again in the Tris-EDTA buffer, followed by a repeat of the centrifugation and decantation steps, with the final pellet being resuspended once more in 15 mM Tris-EDTA buffer at a concentration level of 11.25 mg./ml. This completed the production of the tissue preparation phase of the overall procedure.
# . The final reaction mixture was next vortexed and incubated at 25° C. for a period of 30 minutes (using a 25° C. water bath for these purposes). […] Upon completion of the reaction step, the incubation period was terminated by subjecting the tubes to rapid filtration under vacuum through fiber filters, followed by two rinses with 5 ml. of ice-cold 15 mM Tris-EDTA buffer for each tube. The filters thus obtained were next soaked in 10 ml. of Aquasol 2 (a registered trademark name of New England Nuclear Corporation of Boston, Massachusetts for a liquid scintillation counter material), vortexed and then allowed to stand overnight (ca. 18 hours) at ambient temperatures in order to extract radioactivity. The amount of radioactivity was determined by liquid scintillation counting, using a Beta counter at 53% counting efficiency. The IC50 values were thereafter calculated by using standard statistical methods. On this basis, the ability of each test compound to reduce the amount of radioactivity caused by ^3 [H]-N-propylnorapomorphine is given as an IC50 value, expressed in terms of nM units.
# In this way, the N-substituted arylpiperidine compounds of formula I that were reported as final products in Examples 1-18, respectively, were all assayed and found to be capable of inhibiting ^3 [H]-N-propylnorapomorphine binding at its dopamine-2 receptor site at the previously-indicated dose level tested. The results obtained in this manner are shown below in the following table, where the binding assay for each compound is reported in terms of the previously-discussed IC50 value: […]
# T1 sequence (P61169 whole entry): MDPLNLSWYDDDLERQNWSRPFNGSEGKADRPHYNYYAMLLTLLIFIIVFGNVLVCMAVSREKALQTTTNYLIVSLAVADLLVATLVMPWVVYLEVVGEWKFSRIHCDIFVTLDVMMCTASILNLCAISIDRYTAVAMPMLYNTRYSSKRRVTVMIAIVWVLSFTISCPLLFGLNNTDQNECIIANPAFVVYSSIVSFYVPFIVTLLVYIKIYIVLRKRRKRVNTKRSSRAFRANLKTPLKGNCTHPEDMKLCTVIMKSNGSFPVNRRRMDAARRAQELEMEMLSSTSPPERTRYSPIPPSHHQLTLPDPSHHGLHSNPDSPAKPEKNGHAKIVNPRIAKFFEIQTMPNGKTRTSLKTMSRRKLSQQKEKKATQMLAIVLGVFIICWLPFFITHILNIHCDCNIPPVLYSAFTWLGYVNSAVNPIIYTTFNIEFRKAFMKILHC
row,Compound,IC50 [nM]
1,"Nc1nc(-c2ccc(CCN3CCC(c4cccc5ccccc45)CC3)cc2)cs1 [Example 2, 4-{{4-{2-[4-(1-naphthyl)piperidinyl]ethyl}phenyl}}thiazole-2-amine]",196
2,"O=C1CC2(CCCC2)CC(=O)N1CCCCN1CCC(c2cccc3ccccc23)CC1 [Example 3, 8-{4-[4-(1-naphthyl)-1-piperidinyl]-butyl}-8-azaspiro[4.5]decane-7,9-dione]",239
3,"O=C1Cc2cc(CCN3CCC(c4cccc5ccccc45)CC3)ccc2N1 [Example 4, 5-{2-[4-(1-naphthyl)-1-piperidinyl]ethyl}-oxindole]",184
4,"O=C1Cc2cc(CCN3CCCC(c4cccc5ccccc45)C3)ccc2N1 (stereo not drawn) [Example 5, 5-{2-[3-(1-naphthyl)-1-piperidinyl]ethyl}oxindole]",169
5,"CC12CCC(C(=O)N(CCCCN3CCC(c4cccc5ccccc45)CC3)C1=O)C2(C)C (stereo not drawn) [Example 6, 3-{4-[4-(1-naphthyl)-1-piperidinyl]-n-butyl}-1,8,8-trimethyl-3-azabicyclo[3.2.1]octane-2,4-dione]",169
6,CC12CCC(C(=O)N(CCCCN3CCCC(c4cccc5ccccc45)C3)C1=O)C2(C)C (stereo not drawn) [Example 7],1110
7,"Oc1ccc(CCN2CCC(c3ccccc3)CC2)cc1 [Example 8, 4-[2-(4-phenyl-1-piperidinyl)ethyl]phenol]",362
8,"Oc1ccc(CCN2CCC(c3cccc(C(F)(F)F)c3)CC2)cc1 [Example 9, 4-{2-[4-(3-trifluoromethylphenyl)-piperidinyl]ethyl}phenol]",601
9,"FC(F)(F)c1cccc(C2CCN(CCOc3ccccc3)CC2)c1 [Example 10, 1-{2-[4-(3-trifluoromethylphenyl)-1-piperidinyl]ethyloxy}benzene]",210
10,"COc1ccccc1C1CCCN(CCCCc2ccc(-c3csc(N)n3)cc2)C1 (stereo not drawn) [Example 13, 4-{{4-{4-[3-(2-methoxyphenyl)-1-piperidinyl]n-butyl}-phenyl}}thiazole-2amine]",247
11,"COc1ccccc1C1CCCN(CCCCN2C(=O)CC3(CCCC3)CC2=O)C1 (stereo not drawn) [Example 15, 8-{4-[3-(2-methoxyphenyl)-1-piperidinyl]-n-butyl}-8-azaspiro[4.5]decane-7,9-dione]",531
12,"COc1ccccc1C1CCCN(CCCCN2C(=O)C3CCC(C)(C2=O)C3(C)C)C1 (stereo not drawn) [Example 18, 3-{4-[3-(2-methoxyphenyl)-1-piperidinyl]-n-butyl]-1,8,8-trimethyl-3-azabicyclo[3.2.1]octane-2,4-dione]",679

# The next compounds have a lower IC50 than those just listed; values first:
row,IC50 [nM],Compound
1,114,"Cc1nc2ccccn2c(=O)c1CCN1CCC(c2cccc3ccccc23)CC1 [Example 1, 3-{2-[4-(1-naphthyl)-piperidinyl]ethyl}-2-methyl-4H-pyrido[1,2-a]-pyrimidine-4-one]"
2,36.3,"COc1ccccc1C1CCN(CCc2ccc(-c3csc(N)n3)cc2)CC1 [Example 11, 4-{{4-{2-[4-(2-methoxyphenyl)-1-piperidinyl]ethyl}-phenyl}}-thiazole-2-amine]"
3,150,"COc1ccccc1C1CCCN(CCc2ccc(-c3csc(N)n3)cc2)C1 (stereo not drawn) [Example 12, 4-{{4-{2-[3-(2-methoxyphenyl)-1-piperidinyl]ethyl}phenyl}}-thiazole-2-amine]"
4,51.6,"COc1ccccc1C1CCN(CCCCc2ccc(-c3csc(N)n3)cc2)CC1 [Example 14, 4-{{4-{4-[4-(2-methoxyphenyl)-1-piperidinyl]-n-butyl}-phenyl}}thiazole-2-amine]"
5,52.2,"COc1ccccc1C1CCN(CCc2ccc3c(c2)CC(=O)N3)CC1 [Example 16, 5-{2-[4-(2-methoxyphenyl)-1-piperidinyl]ethyl}oxindole]"
6,51.5,COc1ccccc1C1CCN(CCCCN2C(=O)C3CCC(C)(C2=O)C3(C)C)CC1 (stereo not drawn) [Example 17]
